“And” between values parts separate entries of the source, which are not always exact repeats. Equal values may be shown once.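 Results reflect a 48-hour exposure of cells in 96-well plates to compound at five concentrations. At the GI50, growth is halved. Definition used: TGI = concentration required for complete inhibition of growth.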

The first experiment concerns U251 CNS. Kind of experiment: DTP human tumour cell line panel, 48 h.
In general, TGI refers to the concentration at which net growth stops. Consider `Cc1c(C)c(CC(=O)N2CC2)c(C)c(C)c1CC(=O)N1CC1`, for which the TGI is over 67.3 µM.

One may read the GI50 as the concentration that inhibits growth by half. On to `O=C1c2ccccc2-c2c1c1c(NCCCO)nc3ccccc3c1n2Cc1ccccc1`, for which the GI50 was 20.8 µM and the concentration for total growth inhibition (TGI) is 44.9 µM.

As for `O=C1c2ccccc2-c2c1c1ccccc1c(=O)n2CCNCCn1c2c(c3ccccc3c1=O)C(=O)c1ccccc1-2`, the GI50 was over 25 µM and the TGI was over 25 µM.

The compound `CCCCCCCCCCCCCCCCCCOCC(COCCOCC[N+]1(CCCCCC(=O)[O-])CCCC1)Oc1ncccn1` (stereo not given) showed a TGI of 8.5 µM.

In the case of `CCOc1ccc(Nc2c3ccccc3nc3ccccc23)cc1`, the GI50 was 0.464 µM and 0.381 µM; the TGI was 2.25 µM and 1.9 µM.

Take `CCNCCNc1cc(-c2ccc(C#N)cc2)c(C#N)c2nc3ccccc3n12`: the GI50 is 2.34 µM and the TGI amounted to 5.2 µM.

Regarding `[2H]c1nc(=Nc2cc(NC(=O)C=C)c(N(C)CCN(C)C)cc2OC)[nH]c(-c2cn(C([2H])([2H])[2H])c3ccccc23)c1[2H]`, the GI50 was 1.76 µM and the TGI is 3.6 µM.

For `COc1cc2nc(-c3ccc(C(F)(F)F)cc3)cc(OCCCN3CCCC3)c2cc1OC`, the GI50 was 1.31 µM and the TGI was 18.8 µM.

A further experiment concerns OVCAR-8 ovarian. The experiment can be described thus: DTP human tumour cell line panel, 48 h.
`COC(=O)c1ccc2c(c1)C(=O)c1c-2n(CCCN=[N+]=[N-])c(=O)c2cc([N+](=O)[O-])ccc12`: the GI50 is over 100 µM and the TGI was over 100 µM.

In the case of `C=C1C(=O)C23C(O)C1CC[C@H]2C12CCCC(C)(COC(C)=O)[C@H]1[C@H](O)[C@]3(O)OC2` (stereo not given in full), the TGI was 3.52 µM.

On to `O=C(c1cccs1)C1NO[N+]([O-])=C1c1cccs1` (stereo not given), for which the GI50 is 2.9 µM and the TGI was over 21.9 µM.

As to `CN1c2ccccc2SC2C(c3ccccc3)=NOC21` (stereo not given), the TGI was over 100 µM.

`COc1ccc(C2=C(N3CCc4ccccc43)C(=O)NC2=O)cc1`: the GI50 was over 25 µM and the TGI was over 25 µM.

As for `Cc1cc2c(cc1Cl)S/C(=C/C(=O)O)C(Nc1cccc3nsnc13)=NS2(=O)=O`, the GI50 was over 53.2 µM and the TGI is over 74.8 µM.

As for `COc1ccc(F)c(F)c1C(=O)c1cnc(NC2CCN(S(C)(=O)=O)CC2)nc1N`, the GI50 is 1.18 µM and 0.58 µM; the TGI was over 100 µM.

For `Nc1cc(-c2ccc(Cl)cc2)nn1-c1nnc(/C=C/c2ccco2)c(=O)[nH]1`, the GI50 is 4.09 µM and the TGI was 33 µM.

Regarding `Cc1c(C)c(CC(=O)N2CC2)c(C)c(C)c1CC(=O)N1CC1`, the TGI is over 49.6 µM.

In the case of `O=C1c2ccccc2-c2c1c1c(NCCCO)nc3ccccc3c1n2Cc1ccccc1`, the GI50 was 35 µM and the TGI was over 100 µM.

Turning to `O=C1c2ccccc2-c2c1c1ccccc1c(=O)n2CCNCCn1c2c(c3ccccc3c1=O)C(=O)c1ccccc1-2`, the GI50 is over 25 µM and the TGI is over 25 µM.

On to `CCCCCCCCCCCCCCCCCCOCC(COCCOCC[N+]1(CCCCCC(=O)[O-])CCCC1)Oc1ncccn1` (stereo not given), for which the TGI is 15.9 µM.

Turning to `CCOc1ccc(Nc2c3ccccc3nc3ccccc23)cc1`, the GI50 is 0.54 µM and 0.592 µM; the TGI is 2.45 µM and 15 µM.

For the compound `CCNCCNc1cc(-c2ccc(C#N)cc2)c(C#N)c2nc3ccccc3n12`, the GI50 is 5.15 µM and the TGI was 16.9 µM.

As for `[2H]c1nc(=Nc2cc(NC(=O)C=C)c(N(C)CCN(C)C)cc2OC)[nH]c(-c2cn(C([2H])([2H])[2H])c3ccccc23)c1[2H]`, the GI50 is 4 µM and the TGI was determined as 24.5 µM.

Consider `COc1cc2nc(-c3ccc(C(F)(F)F)cc3)cc(OCCCN3CCCC3)c2cc1OC`, for which the GI50 is 0.826 µM and the TGI was over 49.7 µM.

For another experiment, the system named is TK-10 renal. Kind of experiment: DTP human tumour cell line panel, 48 h.
As to `COC(=O)c1ccc2c(c1)C(=O)c1c-2n(CCCN=[N+]=[N-])c(=O)c2cc([N+](=O)[O-])ccc12`, the GI50 was 29.6 µM and the TGI was found to be 68.6 µM.

`C=C1C(=O)C23C(O)C1CC[C@H]2C12CCCC(C)(COC(C)=O)[C@H]1[C@H](O)[C@]3(O)OC2` (stereo not given in full) gave a total growth inhibition concentration (TGI) of 3.62 µM.

Take `O=C(c1cccs1)C1NO[N+]([O-])=C1c1cccs1` (stereo not given): the GI50 was 2.45 µM and the TGI is 6.27 µM.

Regarding `CN1c2ccccc2SC2C(c3ccccc3)=NOC21` (stereo not given), the TGI was 80 µM. That is a double-digit micromolar value.

For `COc1ccc(C2=C(N3CCc4ccccc43)C(=O)NC2=O)cc1`, the GI50 was over 24.2 µM and the TGI was over 25 µM.

For the compound `Cc1cc2c(cc1Cl)S/C(=C/C(=O)O)C(Nc1cccc3nsnc13)=NS2(=O)=O`, the GI50 was over 58 µM and the TGI is over 72.5 µM.

As to `COc1ccc(F)c(F)c1C(=O)c1cnc(NC2CCN(S(C)(=O)=O)CC2)nc1N`, the GI50 was 0.493 µM and 0.333 µM; the TGI is over 20.3 µM.

`Nc1cc(-c2ccc(Cl)cc2)nn1-c1nnc(/C=C/c2ccco2)c(=O)[nH]1`: the GI50 is 5.6 µM and the TGI is 36.1 µM.

As to `Cc1c(C)c(CC(=O)N2CC2)c(C)c(C)c1CC(=O)N1CC1`, the TGI was over 83 µM.

For the compound `O=C1c2ccccc2-c2c1c1c(NCCCO)nc3ccccc3c1n2Cc1ccccc1`, the GI50 was 23 µM and the TGI was found to be 41.1 µM.

`O=C1c2ccccc2-c2c1c1ccccc1c(=O)n2CCNCCn1c2c(c3ccccc3c1=O)C(=O)c1ccccc1-2`: the GI50 was over 25 µM and the TGI was over 25 µM.

`CCCCCCCCCCCCCCCCCCOCC(COCCOCC[N+]1(CCCCCC(=O)[O-])CCCC1)Oc1ncccn1` (stereo not given) yielded a TGI of 20.3 µM.

`CCOc1ccc(Nc2c3ccccc3nc3ccccc23)cc1`: the GI50 was 0.797 µM and 0.654 µM; the total growth inhibition concentration (TGI) is 4.27 µM and 12.3 µM.

As to `CCNCCNc1cc(-c2ccc(C#N)cc2)c(C#N)c2nc3ccccc3n12`, the GI50 is 2.03 µM and the TGI amounted to 5.74 µM.

Regarding `[2H]c1nc(=Nc2cc(NC(=O)C=C)c(N(C)CCN(C)C)cc2OC)[nH]c(-c2cn(C([2H])([2H])[2H])c3ccccc23)c1[2H]`, the GI50 is 0.0802 µM and the TGI amounted to 3.8 µM.

Take `COc1cc2nc(-c3ccc(C(F)(F)F)cc3)cc(OCCCN3CCCC3)c2cc1OC`: the GI50 is 7.51 µM and the TGI was over 34.5 µM.

For the origin of these results see PubChem BioAssay (NCI).
